# Test results reported in patent US9808003B2, “Herbicidally active 2-(substituted-phenyl)-cyclopentane-1,3-dione compounds and derivatives thereof” (Syngenta Limited, priority 2013, dated 2017).
# Experiments:
# Format in all cases: in vivo
# [1] = system: Winter Barley “Suzuka”; experiment: Test 1B glasshouse assay, post-emergence herbicidal activity against cereal crops; settings: 14 DAA
# In short: (§1)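 Technical compound in IF50 with acetone, diluted into 0.5% v/v Adigor, sprayed post-emergence on 14-day glasshouse plants (22/16 °C, 16 h light, 65% humidity), typically at 60, 90 or 120 g/ha, with or without 50 g/ha cloquintocet-mexyl safener. Phytotoxicity scored visually 14 DAA (0–100%), mean of two replicates.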
# [2] = system: Spring Barley “Harrington”; experiment: as above; settings: 14 DAA
# In short: as §1
# [3] = system: Winter Wheat “Hereward”; experiment: as above; settings: 14 DAA
# In short: as §1
# [4] = system: Spring Wheat “Teal”; experiment: as above; settings: 14 DAA
# In short: as §1
# [5] = system: grassy monocotyledonous weeds; experiment: Test 1B glasshouse assay, post-emergence, comparison of separated enantiomers, weeds overall; settings: chiral-column-separated enantiomers, A98 vs A99 and A100 vs A101, Biological Example 1B
# Experimental: Biological Example 1B tests the herbicidal activity of“technical” compounds (i.e. compounds not previously formulated before the test), as the herbicides under test.
# An “instant formulation”, known as the “IF50”, containing 50 g/liter (i.e. 5% w/v) of the “technical” (i.e. unformulated) active ingredient (i.e. the herbicide under test), is prepared by dissolving the active ingredient in a mixture of organic solvents and emulsifier, details of which are provided in the Table below. […]
# The test plants are then grown on under controlled conditions in the glasshouse (at 22/16° C., day/night; 16 hours light; 65% humidity) and are watered twice daily. 14 days after application of the test herbicide, the test is evaluated visually for percentage phytotoxicity to the plant (where 100%=total damage to plant; 0%=no damage to plant). […]
# Herbicidal activity (phytotoxicity) is evaluated visually, and an assessed percentage phytotoxicity score is given for each herbicidal application on each plant species (with 100%=total damage to plant; 0%=no damage to plant; the assessment is recorded in increments of 1%). […]
# [6] = system: Avena fatua (AVEFA); experiment: Test 1B glasshouse assay, post-emergence herbicidal activity against grassy weeds; settings: 14 DAA
# In short: (§2)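 Post-emergence spray, 14-day-old plants, glasshouse 22/16 °C day/night, 16 h light, 65% humidity. Test herbicide typically 60, 90 or 120 g/ha; cloquintocet-mexyl safener 50 g/ha optional at 60, included at 90/120. Scored visually 14 DAA, 0–100% damage, 2 reps averaged.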
# [7] = system: Lolium multiflorum (LOLMU); experiment: as above; settings: 14 DAA
# In short: as §2
# [8] = system: Poa annua (POAAN); experiment: as above; settings: 14 DAA
# In short: as §2
# [9] = system: Setaria viridis (SETVI); experiment: as above; settings: 14 DAA
# In short: as §2
# [10] = system: Alopecurus myosuroides (ALOMY); experiment: as above; settings: 14 DAA
# In short: as §2
# [11] = 60 g/ha herbicide, 0 g/ha cloquintocet-mexyl, test result no. 1 (T1)
# [12] = 60 g/ha herbicide, 50 g/ha cloquintocet-mexyl, test result no. 1 (T1)
# [13] = 60 g/ha herbicide, 50 g/ha cloquintocet-mexyl, test result no. 2 (T2)
# [14] = 90 g/ha herbicide, 50 g/ha cloquintocet-mexyl, test result no. 2 (T2)
# [15] = 120 g/ha herbicide, 50 g/ha cloquintocet-mexyl, test result no. 2 (T2)
# [16] = 30 g/ha herbicide, 50 g/ha cloquintocet-mexyl
# [17] = 45 g/ha herbicide, 50 g/ha cloquintocet-mexyl
# [18] = 60 g/ha herbicide, 0 g/ha cloquintocet-mexyl
# [19] = 60 g/ha herbicide, 50 g/ha cloquintocet-mexyl
structure (smiles),measurement,setting,value
"Cc1cc(-n2cc(Cl)cn2)cc(C)c1C1C(=O)C[C@@H](CCNC(=O)c2ccccn2)C1=O (stereo partly drawn) [Compound A98, N-[2-[(1R)-3-[4-(4-chloropyrazol-1-yl)-2,6-dimethyl-phenyl]-2,4-dioxo-cyclopentyl]ethyl]pyridine-2-carboxamide]","Post-emergence herbicidal activity against cereal crops, percentage phytotoxicity, Winter Barley “Suzuka”",[1]; [11],75 (T1) %
same,"Post-emergence herbicidal activity against cereal crops, percentage phytotoxicity, Winter Barley “Suzuka”",[1]; [12],13 (T1); %
same,"Post-emergence herbicidal activity against cereal crops, percentage phytotoxicity, Winter Barley “Suzuka”",[1]; [13],8 (T2) %
same,"Post-emergence herbicidal activity against cereal crops, percentage phytotoxicity, Winter Barley “Suzuka”",[1]; [14],9 (T2) %
same,"Post-emergence herbicidal activity against cereal crops, percentage phytotoxicity, Winter Barley “Suzuka”",[1]; [15],40 (T2) %
same,"Post-emergence herbicidal activity against cereal crops, percentage phytotoxicity, Spring Barley “Harrington”",[2]; [11],33 (T1) %
same,"Post-emergence herbicidal activity against cereal crops, percentage phytotoxicity, Spring Barley “Harrington”",[2]; [12],10 (T1); %
same,"Post-emergence herbicidal activity against cereal crops, percentage phytotoxicity, Spring Barley “Harrington”",[2]; [13],4 (T2) %
same,"Post-emergence herbicidal activity against cereal crops, percentage phytotoxicity, Spring Barley “Harrington”",[2]; [14],5 (T2) %
same,"Post-emergence herbicidal activity against cereal crops, percentage phytotoxicity, Spring Barley “Harrington”",[2]; [15],15 (T2) %
same,"Post-emergence herbicidal activity against cereal crops, percentage phytotoxicity, Winter Wheat “Hereward”",[3]; [11],35 (T1) %
same,"Post-emergence herbicidal activity against cereal crops, percentage phytotoxicity, Winter Wheat “Hereward”",[3]; [12],13 (T1); %
same,"Post-emergence herbicidal activity against cereal crops, percentage phytotoxicity, Winter Wheat “Hereward”",[3]; [13],9 (T2) %
same,"Post-emergence herbicidal activity against cereal crops, percentage phytotoxicity, Winter Wheat “Hereward”",[3]; [14],13 (T2) %
same,"Post-emergence herbicidal activity against cereal crops, percentage phytotoxicity, Winter Wheat “Hereward”",[3]; [15],23 (T2) %
same,"Post-emergence herbicidal activity against cereal crops, percentage phytotoxicity, Spring Wheat “Teal”",[4]; [11],30 (T1) %
same,"Post-emergence herbicidal activity against cereal crops, percentage phytotoxicity, Spring Wheat “Teal”",[4]; [12],10 (T1); %
same,"Post-emergence herbicidal activity against cereal crops, percentage phytotoxicity, Spring Wheat “Teal”",[4]; [13],5 (T2) %
same,"Post-emergence herbicidal activity against cereal crops, percentage phytotoxicity, Spring Wheat “Teal”",[4]; [14],13 (T2) %
same,"Post-emergence herbicidal activity against cereal crops, percentage phytotoxicity, Spring Wheat “Teal”",[4]; [15],20 (T2) %
same,herbicidal activity against grassy monocotyledonous weeds compared with the compound of opposite stereochemistry,[5],more potent herbicidal activity
same,"Post-emergence herbicidal activity, percentage phytotoxicity, AVEFA",[6]; [11],100 (T1) %
same,"Post-emergence herbicidal activity, percentage phytotoxicity, AVEFA",[6]; [12],100 (T1); %
same,"Post-emergence herbicidal activity, percentage phytotoxicity, AVEFA",[6]; [13],100 (T2) %
same,"Post-emergence herbicidal activity, percentage phytotoxicity, AVEFA",[6]; [14],100 (T2) %
same,"Post-emergence herbicidal activity, percentage phytotoxicity, AVEFA",[6]; [15],100 (T2) %
same,"Post-emergence herbicidal activity, percentage phytotoxicity, LOLMU",[7]; [11],95 (T1) %
same,"Post-emergence herbicidal activity, percentage phytotoxicity, LOLMU",[7]; [12],95 (T1); %
same,"Post-emergence herbicidal activity, percentage phytotoxicity, LOLMU",[7]; [13],100 (T2) %
same,"Post-emergence herbicidal activity, percentage phytotoxicity, LOLMU",[7]; [14],100 (T2) %
same,"Post-emergence herbicidal activity, percentage phytotoxicity, LOLMU",[7]; [15],100 (T2) %
same,"Post-emergence herbicidal activity, percentage phytotoxicity, POAAN",[8]; [11],78 (T1) %
same,"Post-emergence herbicidal activity, percentage phytotoxicity, POAAN",[8]; [12],75 (T1); %
same,"Post-emergence herbicidal activity, percentage phytotoxicity, POAAN",[8]; [13],75 (T2) %
same,"Post-emergence herbicidal activity, percentage phytotoxicity, POAAN",[8]; [14],78 (T2) %
same,"Post-emergence herbicidal activity, percentage phytotoxicity, POAAN",[8]; [15],83 (T2) %
same,"Post-emergence herbicidal activity, percentage phytotoxicity, SETVI",[9]; [11],94 (T1) %
same,"Post-emergence herbicidal activity, percentage phytotoxicity, SETVI",[9]; [12],97 (T1); %
same,"Post-emergence herbicidal activity, percentage phytotoxicity, SETVI",[9]; [13],100 (T2) %
same,"Post-emergence herbicidal activity, percentage phytotoxicity, SETVI",[9]; [14],100 (T2) %
same,"Post-emergence herbicidal activity, percentage phytotoxicity, SETVI",[9]; [15],100 (T2) %
same,"Post-emergence herbicidal activity, percentage phytotoxicity, ALOMY",[10]; [11],80 (T1) %
same,"Post-emergence herbicidal activity, percentage phytotoxicity, ALOMY",[10]; [12],80 (T1); %
same,"Post-emergence herbicidal activity, percentage phytotoxicity, ALOMY",[10]; [13],78 (T2) %
same,"Post-emergence herbicidal activity, percentage phytotoxicity, ALOMY",[10]; [14],88 (T2) %
same,"Post-emergence herbicidal activity, percentage phytotoxicity, ALOMY",[10]; [15],97 (T2) %
CCc1cc(-n2cc(Cl)cn2)cc(C)c1C1C(=O)C[C@@H](CCNC(=O)c2ccccn2)C1=O (some centres unmarked) [Compound A100],"Post-emergence herbicidal activity against cereal crops, percentage phytotoxicity, Winter Barley “Suzuka”",[1]; [16],10%
same,"Post-emergence herbicidal activity against cereal crops, percentage phytotoxicity, Winter Barley “Suzuka”",[1]; [17],30%
same,"Post-emergence herbicidal activity against cereal crops, percentage phytotoxicity, Winter Barley “Suzuka”",[1]; [18],93%
same,"Post-emergence herbicidal activity against cereal crops, percentage phytotoxicity, Winter Barley “Suzuka”",[1]; [19],53%
same,"Post-emergence herbicidal activity against cereal crops, percentage phytotoxicity, Spring Barley “Harrington”",[2]; [16],13%
same,"Post-emergence herbicidal activity against cereal crops, percentage phytotoxicity, Spring Barley “Harrington”",[2]; [17],18%
same,"Post-emergence herbicidal activity against cereal crops, percentage phytotoxicity, Spring Barley “Harrington”",[2]; [18],83%
same,"Post-emergence herbicidal activity against cereal crops, percentage phytotoxicity, Spring Barley “Harrington”",[2]; [19],28%
same,"Post-emergence herbicidal activity against cereal crops, percentage phytotoxicity, Winter Wheat “Hereward”",[3]; [16],15%
same,"Post-emergence herbicidal activity against cereal crops, percentage phytotoxicity, Winter Wheat “Hereward”",[3]; [17],30%
same,"Post-emergence herbicidal activity against cereal crops, percentage phytotoxicity, Winter Wheat “Hereward”",[3]; [18],60%
same,"Post-emergence herbicidal activity against cereal crops, percentage phytotoxicity, Winter Wheat “Hereward”",[3]; [19],40%
same,"Post-emergence herbicidal activity against cereal crops, percentage phytotoxicity, Spring Wheat “Teal”",[4]; [16],20%
same,"Post-emergence herbicidal activity against cereal crops, percentage phytotoxicity, Spring Wheat “Teal”",[4]; [17],30%
same,"Post-emergence herbicidal activity against cereal crops, percentage phytotoxicity, Spring Wheat “Teal”",[4]; [18],65%
same,"Post-emergence herbicidal activity against cereal crops, percentage phytotoxicity, Spring Wheat “Teal”",[4]; [19],45%
same,herbicidal activity against grassy monocotyledonous weeds compared with the compound of opposite stereochemistry,[5],more potent herbicidal activity
same,"Post-emergence herbicidal activity, percentage phytotoxicity, AVEFA",[6]; [16],100%
same,"Post-emergence herbicidal activity, percentage phytotoxicity, AVEFA",[6]; [17],100%
same,"Post-emergence herbicidal activity, percentage phytotoxicity, AVEFA",[6]; [18],100%
same,"Post-emergence herbicidal activity, percentage phytotoxicity, AVEFA",[6]; [19],100%
same,"Post-emergence herbicidal activity, percentage phytotoxicity, LOLMU",[7]; [16],100%
same,"Post-emergence herbicidal activity, percentage phytotoxicity, LOLMU",[7]; [17],100%
same,"Post-emergence herbicidal activity, percentage phytotoxicity, LOLMU",[7]; [18],100%
same,"Post-emergence herbicidal activity, percentage phytotoxicity, LOLMU",[7]; [19],100%
same,"Post-emergence herbicidal activity, percentage phytotoxicity, POAAN",[8]; [16],73%
same,"Post-emergence herbicidal activity, percentage phytotoxicity, POAAN",[8]; [17],78%
same,"Post-emergence herbicidal activity, percentage phytotoxicity, POAAN",[8]; [18],80%
same,"Post-emergence herbicidal activity, percentage phytotoxicity, POAAN",[8]; [19],78%
same,"Post-emergence herbicidal activity, percentage phytotoxicity, SETVI",[9]; [16],95%
same,"Post-emergence herbicidal activity, percentage phytotoxicity, SETVI",[9]; [17],99%
same,"Post-emergence herbicidal activity, percentage phytotoxicity, SETVI",[9]; [18],99%
same,"Post-emergence herbicidal activity, percentage phytotoxicity, SETVI",[9]; [19],99%
same,"Post-emergence herbicidal activity, percentage phytotoxicity, ALOMY",[10]; [16],55%
same,"Post-emergence herbicidal activity, percentage phytotoxicity, ALOMY",[10]; [17],75%
same,"Post-emergence herbicidal activity, percentage phytotoxicity, ALOMY",[10]; [18],83%
same,"Post-emergence herbicidal activity, percentage phytotoxicity, ALOMY",[10]; [19],78%
